Results reported in US20240148821A1, “PHARMACEUTICAL USE OF CYCLIC PEPTIDE COMPOUND” (CHUGAI SEIYAKU KABUSHIKI KAISHA, priority 2021, published 2024).
Numbered stars: 1 amine (or outer) side, 2 acyl side, 3 side chain; on linkers, the order of the positions; unused ones are H or OH. Bridge positions count the residues as written; N and C are the ends. Square brackets hold non-standard residues; d marks the D form. Peptide text beside a SMILES is read from it. * marks the point of attachment. hPhe(3,5-F2-4-CF3) = N[C@@H](CCc1cc(F)c(C(F)(F)F)c(F)c1)C(=O)O; hPhe(3-Cl-4-CF3) = N[C@@H](CCc1ccc(C(F)(F)F)c(Cl)c1)C(=O)O; hPhe(3-F,4-CF3) = N[C@@H](CCc1ccc(C(F)(F)F)c(F)c1)C(=O)O; NEtPhe(4-CF3) = CCN[C@@H](Cc1ccc(C(F)(F)F)cc1)C(=O)O; NMePhe(4-CF3) = CN[C@@H](Cc1ccc(C(F)(F)F)cc1)C(=O)O; X118 = O=C([C@H](CCc1c(F)cc(F)cc1F)N[*:1])[*:2]; NMePhe(4-Cl) = CN[C@@H](Cc1ccc(Cl)cc1)C(=O)O; NMedβ3hAla = C[C@H](CC(=O)[*:2])N(C)[*:1]; NMeGly(cPent) = CN[C@H](C(=O)O)C1CCCC1; Gly(cPent) = N[C@H](C(=O)O)C1CCCC1; NMeCha = CN[C@@H](CC1CCCCC1)C(=O)O; cisHyp = O=C(O)[C@@H]1C[C@H](O)CN1; NMehLeu = CN[C@@H](CCC(C)C)C(=O)O; Hyp = O=C(O)[C@@H]1C[C@@H](O)CN1; NMeChg = CN[C@H](C(=O)O)C1CCCCC1; NMeF = CN[C@@H](Cc1ccccc1)C(=O)O; NMeI = CC[C@H](C)[C@H](NC)C(=O)O; NMeD = CN[C@@H](CC(=O)O)C(=O)O; CH2CONHtBu = CC(C)(C)NC(=O)C*; NMeL = CN[C@@H](CC(C)C)C(=O)O; NMeV = CN[C@H](C(=O)O)C(C)C; d(β3hA) = C[C@@H](N)CC(=O)O; NMeAbu = CC[C@H](NC)C(=O)O; NMeS = CN[C@@H](CO)C(=O)O; NMeA = CN[C@@H](C)C(=O)O; Piperidide = C1CCN(*)CC1; Thz = O=C(O)[C@@H]1CSCN1; dNMeA = CN[C@H](C)C(=O)O; Ac5c = NC1(C(=O)O)CCCC1; Aze = O=C(O)[C@@H]1CCN1; Ethyl(2,2-F2) = FC(F)C*; Sar = CNCC(=O)O

What follows are compounds tested against protein-protein interaction between Kras and SOS1 (biotin-tagged human Kras loaded with GDP, His-tagged human SOS1) (Homo sapiens (Human), UniProt P01116, G12D) (assay: Protein-protein interaction inhibition between Kras and SOS1 (KrasG12D-SOS PPI) using AlphaScreen). Settings: AlphaScreen; biotin-tagged human Kras loaded with GDP, His-tagged human SOS1; read-out: KRAS G12D-SOS PPI IC50.
Assay type: biochemical

Row | Compound | IC50 [nM]
1 | CC(C)C[C@H]1C(=O)N[C@@H](C2CCCC2)C(=O)N(C)[C@@H](C)C(=O)N2CC[C@H]2C(=O)N(C)[C@@H](CC2CCCCC2)C(=O)N(C)CC(=O)N[C@@H](CCc2ccc(C(F)(F)F)c(Cl)c2)C(=O)N2CCC[C@H]2C(=O)NC2(CCCC2)C(=O)N(C)[C@@H](C(C)C)C(=O)N[C@H](C)CC(=O)N1C [Compound 966] (cyclo([Ac5c][NMeV][d(β3hA)][NMeL][Gly(cPent)][NMeA][Aze][NMeCha][Sar][hPhe(3-Cl-4-CF3)]P)) | 110
2 | CC[C@H](C)[C@@H]1NC(=O)[C@H](CC(C)C)N(C)C(=O)C[C@@H](C)NC(=O)[C@H](C(C)C)N(C)C(=O)C2(CCCC2)NC(=O)[C@@H]2CCCN2C(=O)[C@H](CCc2ccc(C(F)(F)F)c(Cl)c2)NC(=O)CN(C)C(=O)[C@H](CC2CCCCC2)N(C)C(=O)[C@@H]2CCN2C(=O)[C@H](CC)N(C)C1=O [Compound 1593] (cyclo([Ac5c][NMeV][d(β3hA)][NMeL]I[NMeAbu][Aze][NMeCha][Sar][hPhe(3-Cl-4-CF3)]P)) | 140
3 | CC[C@H](C)[C@@H]1NC(=O)[C@H](C)N(C)C(=O)C[C@@H](C)NC(=O)[C@H](CC(C)C)N(C)C(=O)[C@H](Cc2ccccc2)N(C)C(=O)[C@H](CC(C)C)NC(=O)[C@H](CCc2c(F)cc(F)cc2F)NC(=O)CN(C)C(=O)[C@H](Cc2ccc(Cl)cc2)N(C)C(=O)CN(C)C(=O)CN(C)C1=O [Compound 2090] (cyclo(I[Sar][Sar][NMePhe(4-Cl)][Sar][X118]L[NMeF][NMeL][d(β3hA)][NMeA])) | 380
4 | CC[C@H](C)[C@@H]1NC(=O)[C@H](CC(C)C)N(C)C(=O)C[C@@H](C)N(C)C(=O)[C@H]([C@@H](C)CC)N(C)C(=O)C2(CCCC2)NC(=O)[C@@H]2CCCN2C(=O)[C@H](CCc2ccc(C(F)(F)F)c(Cl)c2)NC(=O)CN(C)C(=O)[C@H](Cc2ccc(C(F)(F)F)cc2)N(CC)C(=O)[C@@H]2CCN2C(=O)[C@H](C)N(C)C1=O [Compound 898] (cyclo([Ac5c][NMeI][NMedβ3hAla][NMeL]I[NMeA][Aze][NEtPhe(4-CF3)][Sar][hPhe(3-Cl-4-CF3)]P)) | 12
5 | CC[C@H](C)[C@@H]1NC(=O)[C@H](CC(C)C)N(C)C(=O)C[C@@H](C(=O)N2CCCCC2)N(C)C(=O)[C@H](C2CCCCC2)N(C)C(=O)C2(CCCC2)NC(=O)[C@@H]2CSCN2C(=O)[C@H](CCc2ccc(C(F)(F)F)c(Cl)c2)NC(=O)CN(C)C(=O)[C@H](CC2CCCCC2)N(C)C(=O)CN(C)C(=O)CN(C)C1=O [Compound 1093] ([NMeL]I[Sar][Sar][NMeCha][Sar][hPhe(3-Cl-4-CF3)][Thz][Ac5c][NMeChg][NMeD]-Piperidide; lactam N-11) | 0.73
6 | CCO[C@@H]1C[C@H]2C(=O)NC3(CCCC3)C(=O)N(C)[C@@H](C3CCCCC3)C(=O)N(C)[C@H](C)CC(=O)N(C)[C@@H](CC(C)C)C(=O)N[C@@H]([C@@H](C)CC)C(=O)N(C)[C@@H](C)C(=O)N3CC[C@H]3C(=O)N(C)[C@@H](Cc3ccc(C(F)(F)F)cc3)C(=O)N(C)CC(=O)N[C@@H](CCc3cc(F)c(C(F)(F)F)c(F)c3)C(=O)N2C1 [Compound 486] (cyclo([Ac5c][NMeChg][NMedβ3hAla][NMeL]I[NMeA][Aze][NMePhe(4-CF3)][Sar][hPhe(3,5-F2-4-CF3)][Hyp](Et))) | 4.8
7 | CC[C@H](C)[C@@H]1NC(=O)[C@H](CC(C)C)N(C)C(=O)C[C@@H](C(=O)N2CCCCC2)N(C)C(=O)[C@H](C2CCCCC2)N(C)C(=O)C2(CCCC2)NC(=O)[C@@H]2C[C@H](OCC(F)F)CN2C(=O)[C@H](CCc2ccc(C(F)(F)F)c(Cl)c2)NC(=O)CN(C)C(=O)[C@H](CC2CCCCC2)N(C)C(=O)CN(C)C(=O)CN(C)C1=O [Compound 2123] ([NMeL]I[Sar][Sar][NMeCha][Sar][hPhe(3-Cl-4-CF3)][cisHyp](Ethyl(2,2-F2))[Ac5c][NMeChg][NMeD]-Piperidide; lactam N-11) | 1.5
8 | CC[C@H](C)[C@@H]1NC(=O)[C@H](C)N(C)C(=O)C[C@@H](C)NC(=O)[C@H](C(C)C)N(C)C(=O)C2(CCCC2)NC(=O)[C@@H]2CCCN2C(=O)[C@H](CCc2ccc(C(F)(F)F)c(Cl)c2)NC(=O)[C@@H](C)N(C)C(=O)[C@H](CC2CCCCC2)N(C)C(=O)[C@@H]2CCCN2C(=O)[C@@H]2CCN2C1=O [Compound 2009] (cyclo([Ac5c][NMeV][d(β3hA)][NMeA]I[Aze]P[NMeCha][dNMeA][hPhe(3-Cl-4-CF3)]P)) | 82
9 | CC[C@H](C)[C@@H]1NC(=O)[C@H](CC(C)C)N(C)C(=O)C[C@@H](C)NC(=O)[C@H](C(C)C)N(C)C(=O)C2(CCCC2)NC(=O)[C@@H]2CCCN2C(=O)[C@H](CCc2ccc(C(F)(F)F)c(Cl)c2)NC(=O)CN(C)C(=O)[C@H](CC2CCCCC2)N(C)C(=O)[C@@H]2CCN2C(=O)[C@H](COCC(=O)NC(C)(C)C)N(C)C1=O [Compound 70] (cyclo([Ac5c][NMeV][d(β3hA)][NMeL]I[NMeS](CH2CONHtBu)[Aze][NMeCha][Sar][hPhe(3-Cl-4-CF3)]P)) | 160
10 | CC[C@H](C)[C@@H]1NC(=O)[C@H](CCC(C)C)N(C)C(=O)C[C@@H](C(=O)N(C)C)N(C)C(=O)[C@H](C2CCCC2)N(C)C(=O)C2(CCCC2)NC(=O)[C@@H]2CCCN2C(=O)[C@H](CCc2ccc(C(F)(F)F)c(F)c2)NC(=O)CN(C)C(=O)[C@H](CC2CCCCC2)N(C)C(=O)[C@@H]2CCN2C(=O)[C@H](C)NC1=O [Compound 1292] ([NMehLeu]IA[Aze][NMeCha][Sar][hPhe(3-F,4-CF3)]P[Ac5c][NMeGly(cPent)][NMeD]-NMe2; lactam N-11) | 2
